Results reported in PMC3983201, “6-Methoxyflavanones as Bitter Taste Receptor Blockers for hTAS2R39” (PLoS ONE, 2014).
Like-named read-outs stand apart in the source and are kept apart here.

Columns and labels:
hTAS2R14 = target: T1, hTAS2R14 (Homo sapiens, UniProt Q9NYV8); test: Calcium assay of hTAS2R14 activation/inhibition in HEK293 T-Rex Flp-In cells; assay type: cell-based; conditions: for IC50, Simultaneous / Threshold, Simultaneous: simultaneous addition, n.b. = no blocking; for IC50 / Threshold, Stepwise: stepwise addition
T1 construct: first 45 amino acids of rat somatostatin receptor type 3 (sst3 membrane-targeting tag) (N); expressed in transfected cells; host or cells: HEK293 T-Rex Flp-In cells stably expressing Gα16-gust44; induced with doxycycline
T1 sequence (Q9NYV8 1-317): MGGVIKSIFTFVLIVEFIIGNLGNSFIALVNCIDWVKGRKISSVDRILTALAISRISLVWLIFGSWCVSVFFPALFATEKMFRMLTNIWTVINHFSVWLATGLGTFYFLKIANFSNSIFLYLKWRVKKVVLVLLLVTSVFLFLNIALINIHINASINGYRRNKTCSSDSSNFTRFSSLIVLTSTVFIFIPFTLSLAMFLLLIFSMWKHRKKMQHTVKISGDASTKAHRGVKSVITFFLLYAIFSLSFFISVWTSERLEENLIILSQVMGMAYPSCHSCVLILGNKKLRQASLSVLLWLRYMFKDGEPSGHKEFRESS
Description: For functional expression of the human bitter taste receptor hTAS2R39, HEK293 T-Rex Flp-In cells (Invitrogen, San Diego, CA, USA) were used, stably expressing the chimeric G-protein α-subunit Gα16-gust44 (cloned into pcDNA4 (Invitrogen)) and the human bitter receptor genes for hTAS2R39 (cloned into pcDNA5/FRT (Invitrogen)). The bitter receptor gene contained a DNA sequence encoding the first 45 amino acids of rat somatostatin receptor type 3 at its 5′ end (the receptor expression was achieved according to [18] with exception of the HSV-tag), in order to improve membrane targeting of the receptor protein. The same procedure was applied for stable expression of hTAS2R14. Cells were maintained in Dulbecco's Modified Eagle's Medium (DMEM) and 10% (v/v) tetracycline-free FBS (both Lonza, Verviers, Belgium) supplemented with blasticidin (5 μg/mL), geneticin (400 μg/mL) and hygromycin (100 μg/mL) (all from Invitrogen). Cells were grown and maintained at 37 °C and 5% (v/v) CO2.
Cells were seeded into poly-L-lysine-coated (Sigma-Aldrich) 96-well plates (black wall, clear bottom, Greiner bio-one, Frickenhausen, Germany) at a density of 7*10^3 cells in 100 μL/well and cultured for 24 h. Transcription of the receptors was induced by adding 0.25 μg/mL doxycycline (Sigma-Aldrich). […] One hour after loading, cells were washed with Tyrode's buffer and taken up in Tyrode's buffer. Stock solutions of test compounds were prepared in DMSO and diluted to the appropriate concentration in Tyrode's buffer, not exceeding a DMSO concentration of 1% (v/v).
Two methods of compound administration were applied: simultaneous and stepwise addition of potential antagonist and agonist. The first 17 s before compound addition were used for baseline determination. For the simultaneous method, agonist and potential antagonist were pre-mixed, administered after 17 s, and fluorescence was measured for in total 90 s. For the stepwise method, after 17 s, the potential antagonist was added, fluorescence was measured until 120 s, and after 120 s the agonist was added and measured for another 120 s, in total 240 s. […] Each experiment was performed at least in duplicate in separate experiments (as indicated for each figure).
Data processing was done as reported previously. In brief, SoftMax Pro 5.4 software (Molecular Devices Corporation) was used to plot the fluorescence signals. The fluorescence value (ΔF/F0), representing receptor activity, was calculated by subtracting the baseline fluorescence (F0) prior to loading from the maximum fluorescence (F) after compound addition, divided by the signal of the baseline in order to normalize background fluorescence. Dose-response curves were established as non-linear regression curves using Graph Pad Prism (version 4 for Windows, Graph Pad Software, San Diego, CA, USA). Half-maximal effective concentrations (EC50) and half-maximal inhibitory concentrations (IC50) were calculated. Error bars reflect the standard error of the mean (SEM). Statistical analysis was performed in Graph Pad Prism (one-way ANOVA at 5% risk level, followed by Bonferroni's post hoc test).
Inhibition was indicated when [drawing 1] . In case of indicated inhibition, flavanones were applied at different concentrations, in order to test for dose-dependent inhibition, at the EC80 concentration of the agonist. […] To investigate the specificity of flavanones for inhibition of hTAS2R39 and hTAS2R14, another bitter taste receptor, hTAS2R16 (not known to be activated by flavonoids), was used in inhibition experiments ( File S3 ) towards its agonist salicin.

hTAS2R39 = target: T2, hTAS2R39 (Homo sapiens, UniProt P59534); test: Calcium assay of hTAS2R39 activation/inhibition in HEK293 T-Rex Flp-In cells; assay type: cell-based
T2 construct: first 45 amino acids of rat somatostatin receptor type 3 (sst3 membrane-targeting tag) (N); expressed in transfected cells; host or cells: HEK293 T-Rex Flp-In cells stably expressing Gα16-gust44; receptor in pcDNA5/FRT, induced with doxycycline
T2 sequence (P59534 1-338): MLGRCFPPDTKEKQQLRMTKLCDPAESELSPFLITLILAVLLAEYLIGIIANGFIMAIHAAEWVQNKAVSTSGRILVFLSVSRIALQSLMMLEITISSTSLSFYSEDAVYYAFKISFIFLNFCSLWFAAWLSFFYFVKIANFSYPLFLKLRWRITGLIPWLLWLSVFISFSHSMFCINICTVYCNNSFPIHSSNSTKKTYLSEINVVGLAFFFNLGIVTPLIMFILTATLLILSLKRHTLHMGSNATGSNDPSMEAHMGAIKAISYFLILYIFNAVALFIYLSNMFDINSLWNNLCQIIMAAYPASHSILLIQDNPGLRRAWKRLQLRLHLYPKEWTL

[1] = inhibition of hTAS2R14 response to 70 μM genistein
[2] = inhibition of hTAS2R14 response to 640 μM ECG

SMILES: COc1ccc2c(c1)C(=O)CC(c1ccccc1)O2 (stereo not drawn) [Compound 11, 6-Methoxyflavanone]
- IC50, Simultaneous (hTAS2R14; [1]): n.b.
- Threshold, Simultaneous (hTAS2R14; [1]): n.b.
- IC50 (hTAS2R14; [1]): 741 ± 143 µM
- Threshold, Stepwise (hTAS2R14; [1]): 500 µM
- IC50, Simultaneous (hTAS2R14; [2]): n.b.
- Threshold, Simultaneous (hTAS2R14; [2]): n.b.
- IC50 (hTAS2R14; [2]): 447 ± 123 µM
- Threshold, Stepwise (hTAS2R14; [2]): 250 µM

SMILES: CCCN(CCC)S(=O)(=O)c1ccc(C(=O)O)cc1 [probenecid, p-(dipropylsulfamyl)benzoic acid, reference compound]
- inhibition of hTAS2R39 by probenecid in the buffer (hTAS2R39; 0.5 mM probenecid in Tyrode's buffer, agonist ECG): did not lead to inhibition
- inhibition of hTAS2R14 by probenecid in the buffer (hTAS2R14; 0.5 mM probenecid in Tyrode's buffer, agonist equol): did not lead to inhibition

SMILES: COc1ccc2c(c1)C(=O)CC(c1ccc(F)cc1)O2 (stereo not drawn) [Compound 6, 4′-Fluoro-6-methoxyflavanone]
- reversibility of inhibition (washout experiment) (hTAS2R39; 200 μM ECG, 100 μM antagonist, washed with Tyrode's buffer, stimulated again): reversible
- maximal signal reduction (hTAS2R39; 200 μM ECG, simultaneous addition, reached at 63 μM): 65%
- receptor blocking (hTAS2R39; 200 μM ECG, stepwise addition (applied prior to ECG)): 100%
- maximal signal reduction (hTAS2R39; 1.7 mM denatonium benzoate, simultaneous addition, up to 63 μM): 58%
- receptor blocking (hTAS2R39; 1.7 mM denatonium benzoate, stepwise addition): 100%
- mechanism of antagonism on hTAS2R39 (hTAS2R39; ECG dose-response curves at various antagonist concentrations and wash-out experiments): reversible insurmountable antagonism
- Threshold, Simultaneous (hTAS2R39; inhibition of hTAS2R39 response to 200 μM ECG, simultaneous addition, n.b. = no blocking): 8 µM
- IC50 (hTAS2R39; inhibition of hTAS2R39 response to 200 μM ECG, simultaneous addition, n.b. = no blocking, read-out: IC50, Simultaneous): 32 ± 7 µM
- Threshold, Stepwise (hTAS2R39; inhibition of hTAS2R39 response to 200 μM ECG, stepwise addition): 63 µM
- IC50 (hTAS2R39; inhibition of hTAS2R39 response to 200 μM ECG, stepwise addition, read-out: IC50, Stepwise): 102 ± 9 µM
- Threshold, Simultaneous (hTAS2R39; inhibition of hTAS2R39 response to 1.7 mM denatonium benzoate, simultaneous addition, n.b. = no blocking): 8 µM
- IC50 (hTAS2R39; inhibition of hTAS2R39 response to 1.7 mM denatonium benzoate, simultaneous addition, n.b. = no blocking, read-out: IC50, Simultaneous): 22 ± 12 µM
- Threshold, Stepwise (hTAS2R39; inhibition of hTAS2R39 response to 1.7 mM denatonium benzoate, stepwise addition): 32 µM
- IC50 (hTAS2R39; inhibition of hTAS2R39 response to 1.7 mM denatonium benzoate, stepwise addition, read-out: IC50, Stepwise): 55 ± 3 µM
- significance of the inhibitory effect at screening concentrations (hTAS2R39; simultaneous application of 200 μM ECG and 250 μM flavanone): significant
- reduction of ECG response on hTAS2R39 (screening for inhibition) (hTAS2R39; simultaneous application of 200 μM ECG and 250 μM flavanone, inhibition when response ratio <1): showed reduction of ECG responses
- blocking of hTAS2R14 (hTAS2R14; 640 μM ECG, simultaneous application): no blocking
- inhibition of hTAS2R14 (hTAS2R14; 640 μM ECG, stepwise application): an inhibitory effect was observed
- IC50, Simultaneous (hTAS2R14; [1]): n.b.
- Threshold, Simultaneous (hTAS2R14; [1]): n.b.
- IC50 (hTAS2R14; [1]): ~500 µM
- Threshold, Stepwise (hTAS2R14; [1]): 32 µM
- IC50, Simultaneous (hTAS2R14; [2]): n.b.
- Threshold, Simultaneous (hTAS2R14; [2]): n.b.
- IC50 (hTAS2R14; [2]): 79 ± 25 µM
- Threshold, Stepwise (hTAS2R14; [2]): <8 µM
